Assay results: patent US10627415B2, “Compositions and methods for diagnosing, monitoring, and treating an autoimmune disease” (BOARD OF TRUSTEES OF MICHIGAN STATE UNIVERSITY, priority 2015, dated 2020)

What was measured:
Assay type in all cases: cell-based, human
RBCs [1] = assay: 65Zn2+ binding to RBCs; details: 20 nM 65Zn2+ and 20 nM C-peptide
Source text: In some embodiments, e.g., those in which RBCs are contacted with C-peptide and Zn^2+, Fe^2+, and/or Cr^3+, in the presence of albumin or other C-peptide binding facilitator, Zn^2+, Fe^2+, and/or Cr^3+ uptake by RBCs can be measured (e.g., as a proxy for C-peptide uptake). Methods for detecting or measuring Zn^2+ uptake by RBCs are known in the art and described in, e.g., Horn et al. (1995) J Physiol 489(1):73-80 (describing the use of radiolabeled Zn^2+).
Additional samples from healthy controls and MS patients were analyzed for C-peptide binding, ATP release (10 healthy control patients, 10 MS patients, and 12 MS patients with glybenclamide), and Zn^2+ binding (11 healthy control patients and 22 MS patients). […] Here, 20 nM ^65Zn^2+ was incubated with the RBCs and 20 nM C-peptide. It is noteworthy that in 32 of these 34 samples, MS ATP release, C-peptide and/or Zn^2+ binding, was higher than the control samples analyzed simultaneously with the MS samples.

RBCs of MS patients = assay: ATP release from RBCs in a constricted environment (luciferin/luciferase chemiluminescence); details: RBCs of MS patients incubated with the inhibitor; 7% hematocrit, flow; MS without inhibitor 344.7±46.8 nM, healthy controls 132.1±14.1 nM
Source text: In some embodiments, detecting or measuring the amount of C-peptide uptake can be accomplished by measuring ATP release by the RBCs contacted with C-peptide (and, optionally, Zn^2+, Fe^2+, and/or Cr^3+). Methods for measuring ATP release by RBCs are known in the art and described in, e.g., Faris and Spence (2008) Analyst 133(5):678-682; Fischer et al. (2003) Analyst 128(9):1163-1168; Petruzzi et al. (1994) Metabalism 43(4):435-440; Richards et al. (2013) Am J Physiol Regul Integr Comp Physiol 305(11):R1331-1336; and Richards et al. (2014) Am J Physiol Regul Integr Comp Physiol 307(7):R862-868. For example, ATP can be measured using a luciferin-luciferase assay. […] The light emitted from the reaction with ATP can be quantified using a luminometer. […]
Experiments were performed to determine if RBCs from MS patients (n=19) release more ATP than blood from healthy control patients (n=10) or blood from MS patents combined with the ATP release inhibitor, glybenclamide (Gly; n=12) when subjected to a constricted environment. […] The portion of tubing having the polyimide coating removed was positioned over a light-excluding box containing a photomultiplier tube (PMT), such that chemiluminescence generated from the ATP contacting the detection facilitator was detected. […]

RBCs [2] = assay: Effect of C-peptide binding facilitator on C-peptide binding to RBCs (Example 2 protocol); details: for C-peptide binding to RBCs, MS: n = 1
Experimental: Similar studies were performed using serum albumin from other species (human, porcine, chicken); all of these forms deliver C-peptide to RBCs and are useful in the methods described herein.
All samples were handled in an identical manner. Briefly, about 10 mL of blood was drawn from each donor; the RBCs were purified by centrifugation; and the RBCs were suspended in physiological salt solution (PSS). Then RBCs were combined with PSS (containing bovine serum albumin (BSA) as a C-peptide binding facilitator) and C-peptide to generate a mixture having a 7% hematocrit, 20 nM C-peptide, and 75 μM BSA (0.5%). The mixture was allowed to incubate for 2 hours at 37° C. Next, the samples were centrifuged to separate the cells from solution, the solution was diluted 1:50 with double distilled water, and the amount of C-peptide remaining in the solution was determined by ELISA. This provided a value corresponding to the moles of C-peptide bound to the RBCs. […] Whereas blood from the healthy controls bound an average of 1.99±0.32 pmoles C-peptide, blood from MS patients and OND patients bound averages of 3.51±0.59 pmoles of C-peptide and 2.23±0.51 pmoles of C-peptide, respectively. As shown by p values of less than 0.001, the increase in C-peptide binding relative to healthy controls and OND patients is significant.
Experiments were performed to determine the effect of C-peptide binding facilitator concentration on C-peptide binding by RBCs. The protocol of Experiment 2 was repeated, but with increasing BSA concentrations. […] Only a slight increase in C-peptide binding is realized.
Experiments were performed to test various potential C-peptide binding facilitators. The experiments were performed as described in example 2, but the C-peptide binding facilitator, BSA, was replaced with other albumins (porcine serum albumin and ovalbumin) or other proteins (leptin, casein, transferrin, and collagen).

[3] = other protein in place of BSA, n = 3
[4] = other albumin in place of BSA, n = 4

[65Zn+2] [^65Zn^2+]
amount of 65Zn2+ able to bind with the RBCs (RBCs [1]; RBCs of MS patients): 3.61±0.22 picomoles
amount of 65Zn2+ able to bind with the RBCs (RBCs [1]; RBCs of healthy controls): 2.26±0.24 picomoles

COc1ccc(Cl)cc1C(=O)NCCc1ccc(S(=O)(=O)NC(=O)NC2CCCCC2)cc1 [glybenclamide]
ATP release (RBCs of MS patients): 65.3 ± 11.6 nM

bovine serum albumin [BSA]
C-peptide binding (RBCs [2]; [BSA] 0.5%): 2.14 ± 0.22 pmol
C-peptide binding (RBCs [2]; [BSA] 1.0%): 2.19 ± 0.16 pmol
C-peptide binding (RBCs [2]; [BSA] 2.0%): 2.26 ± 0.13 pmol

casein
C-peptide binding to RBCs, MS (RBCs [2]; other protein in place of BSA): No binding detected
C-peptide binding to RBCs, Control (RBCs [2]; [3]): No binding detected

collagen
C-peptide binding to RBCs, MS (RBCs [2]; other protein in place of BSA): 0.56 pmol
C-peptide binding to RBCs, Control (RBCs [2]; [3]): 0.21 ± 0.14 pmol

leptin
C-peptide binding to RBCs, MS (RBCs [2]; other protein in place of BSA): 0.97 pmol
C-peptide binding to RBCs, Control (RBCs [2]; [3]): 0.74 ± 0.11 pmol

ovalbumin
C-peptide binding to RBCs, MS (RBCs [2]; other albumin in place of BSA): 0.67 pmol
C-peptide binding to RBCs, Control (RBCs [2]; [4]): 0.39 ± 0.22 pmol

transferrin
C-peptide binding to RBCs, MS (RBCs [2]; other protein in place of BSA): No binding detected
C-peptide binding to RBCs, Control (RBCs [2]; [3]): No binding detected

B1: porcine serum albumin (protein, UniProt P08835 25-607, looked up)
Albumin: DTYKSEIAHRFKDLGEQYFKGLVLIAFSQHLQQCPYEEHVKLVREVTEFAKTCVADESAENCDKSIHTLFGDKLCAIPSLREHYGDLADCCEKEEPERNECFLQHKNDNPDIPKLKPDPVALCADFQEDEQKFWGKYLYEIARRHPYFYAPELLYYAIIYKDVFSECCQAADKAACLLPKIEHLREKVLTSAAKQRLKCASIQKFGERAFKAWSLARLSQRFPKADFTEISKIVTDLAKVHKECCHGDLLECADDRADLAKYICENQDTISTKLKECCDKPLLEKSHCIAEAKRDELPADLNPLEHDFVEDKEVCKNYKEAKHVFLGTFLYEYSRRHPDYSVSLLLRIAKIYEATLEDCCAKEDPPACYATVFDKFQPLVDEPKNLIKQNCELFEKLGEYGFQNALIVRYTKKVPQVSTPTLVEVARKLGLVGSRCCKRPEEERLSCAEDYLSLVLNRLCVLHEKTPVSEKVTKCCTESLVNRRPCFSALTPDETYKPKEFVEGTFTFHADLCTLPEDEKQIKKQTALVELLKHKPHATEEQLRTVLGNFAAFVQKCCAAPDHEACFAVEGPKFVIEIRGILA
C-peptide binding to RBCs, MS (RBCs [2]; other albumin in place of BSA): 6.33 pmol
C-peptide binding to RBCs, Control (RBCs [2]; [4]): 4.01 ± 1.01 pmol
